Source: PubChem BioAssay AID2060492 (Molecular Pharmacology Branch, DTP, NCI, 2025)

System: 695427-040-R-J1-PDC complex spheroids, viability percent T/C
Test: Anticancer human tumor 695427-040-R-J1-PDC patient-derived colon adenocarcinoma cell line growth inhibition [GQUAD]
Details: for IC50: curve of first compound; for viability, T/C: stronger effect = lower value
Outline: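 Multi-cell-type spheroids of tumor cells with HUVEC and mesenchymal stem cells, treated with drug combinations. Concentrations descend in half-log steps from near clinical Cmax, or from 10 microM where Cmax is unknown; viability read-out.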

[1] = second compound 0.0316 µM, first compound 0.0316 µM
[2] = second compound 0.0316 µM, first compound 0.1 µM
[3] = second compound 0.0316 µM, first compound 0.316 µM
[4] = second compound 0.0316 µM, first compound 1 µM
[5] = second compound 0.0316 µM, first compound 3.16 µM
[6] = second compound 0.0316 µM, first compound 10 µM
[7] = second compound 0.1 µM, first compound 0.0316 µM
[8] = second compound 0.1 µM, first compound 0.1 µM
[9] = second compound 0.1 µM, first compound 0.316 µM
[10] = second compound 0.1 µM, first compound 1 µM
[11] = second compound 0.1 µM, first compound 3.16 µM
[12] = second compound 0.1 µM, first compound 10 µM
[13] = second compound 0.316 µM, first compound 0.0316 µM
[14] = second compound 0.316 µM, first compound 0.1 µM
[15] = second compound 0.316 µM, first compound 0.316 µM
[16] = second compound 0.316 µM, first compound 1 µM
[17] = second compound 0.316 µM, first compound 3.16 µM
[18] = second compound 0.316 µM, first compound 10 µM
[19] = second compound 1 µM, first compound 0.0316 µM
[20] = second compound 1 µM, first compound 0.1 µM
[21] = second compound 1 µM, first compound 0.316 µM
[22] = second compound 1 µM, first compound 1 µM
[23] = second compound 1 µM, first compound 3.16 µM
[24] = second compound 1 µM, first compound 10 µM
[25] = second compound 3.16 µM, first compound 0.0316 µM
[26] = second compound 3.16 µM, first compound 0.1 µM
[27] = second compound 3.16 µM, first compound 0.316 µM
[28] = second compound 3.16 µM, first compound 1 µM
[29] = second compound 3.16 µM, first compound 3.16 µM
[30] = second compound 3.16 µM, first compound 10 µM
[31] = second compound 10 µM, first compound 0.0316 µM
[32] = second compound 10 µM, first compound 0.1 µM
[33] = second compound 10 µM, first compound 0.316 µM
[34] = second compound 10 µM, first compound 1 µM
[35] = second compound 10 µM, first compound 3.16 µM
[36] = second compound 10 µM, first compound 10 µM
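Note: spheroids exposed to compounds for seven days before readout.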

C#Cc1c(F)ccc2cc(O)cc(-c3ncc4c(N5CC6CCC(C5)N6)nc(OCC56CCCN5CC(F)C6)nc4c3F)c12 (centres undefined) + CN(C)c1ccc(Nc2c3ccc(NC(=O)CCN4CCCC4)cc3nc3cc(NC(=O)CCN4CCCC4)ccc23)cc1
IC50 (second compound 0.0316 µM): > 10 µM | IC50 (second compound 0.1 µM): > 10 µM | IC50 (second compound 0.316 µM): > 10 µM | IC50 (second compound 1 µM): > 10 µM | IC50 (second compound 3.16 µM): > 10 µM | IC50 (second compound 10 µM): > 10 µM | viability, T/C [1]: 101% | viability, T/C [2]: 102% | viability, T/C [3]: 100% | viability, T/C [4]: 98.9% | viability, T/C [5]: 98.4% | viability, T/C [6]: 83.5% | viability, T/C [7]: 106% | viability, T/C [8]: 95.4% | viability, T/C [9]: 98% | viability, T/C [10]: 94% | viability, T/C [11]: 97.5% | viability, T/C [12]: 83.3% | viability, T/C [13]: 96.4% | viability, T/C [14]: 106% | viability, T/C [15]: 94.6% | viability, T/C [16]: 89.5% | viability, T/C [17]: 99.1% | viability, T/C [18]: 80.6% | viability, T/C [19]: 100% | viability, T/C [20]: 102% | viability, T/C [21]: 106% | viability, T/C [22]: 101% | viability, T/C [23]: 91.8% | viability, T/C [24]: 77.5% | viability, T/C [25]: 101% | viability, T/C [26]: 91% | viability, T/C [27]: 92.9% | viability, T/C [28]: 87.7% | viability, T/C [29]: 86.2% | viability, T/C [30]: 80.7% | viability, T/C [31]: 87.1% | viability, T/C [32]: 91.8% | viability, T/C [33]: 86.1% | viability, T/C [34]: 87.4% | viability, T/C [35]: 82.4% | viability, T/C [36]: 62.4%

Nc1ccn(C2OC(CO)C(O)C2(F)F)c(=O)n1 (centres undefined) + CN(C)c1ccc(Nc2c3ccc(NC(=O)CCN4CCCC4)cc3nc3cc(NC(=O)CCN4CCCC4)ccc23)cc1
IC50 (second compound 0.0316 µM): > 10 µM | IC50 (second compound 0.1 µM): > 10 µM | IC50 (second compound 0.316 µM): > 10 µM | IC50 (second compound 1 µM): > 10 µM | IC50 (second compound 3.16 µM): > 10 µM | IC50 (second compound 10 µM): > 10 µM | viability, T/C [1]: 88.9% | viability, T/C [2]: 81% | viability, T/C [3]: 74.9% | viability, T/C [4]: 74.2% | viability, T/C [5]: 72.9% | viability, T/C [6]: 62.7% | viability, T/C [7]: 97.5% | viability, T/C [8]: 82.7% | viability, T/C [9]: 78.3% | viability, T/C [10]: 74.1% | viability, T/C [11]: 69.7% | viability, T/C [12]: 55.3% | viability, T/C [13]: 94.4% | viability, T/C [14]: 83.2% | viability, T/C [15]: 72.7% | viability, T/C [16]: 69.3% | viability, T/C [17]: 68.9% | viability, T/C [18]: 59.8% | viability, T/C [19]: 87.3% | viability, T/C [20]: 78.8% | viability, T/C [21]: 75% | viability, T/C [22]: 70.4% | viability, T/C [23]: 70.5% | viability, T/C [24]: 57.5% | viability, T/C [25]: 76.8% | viability, T/C [26]: 78% | viability, T/C [27]: 71.4% | viability, T/C [28]: 65.2% | viability, T/C [29]: 65.5% | viability, T/C [30]: 54.4% | viability, T/C [31]: 83.1% | viability, T/C [32]: 66.2% | viability, T/C [33]: 66.3% | viability, T/C [34]: 63.6% | viability, T/C [35]: 57.6% | viability, T/C [36]: 48.2%
